In PMC10129394, “PK1 from Drosophila obscurin is an inactive pseudokinase with scaffolding properties” (Open Biology, 2023):

Experiments:
dmObsc-PK1 [1] = biological target: T1, dmObsc-PK1 (Drosophila melanogaster, UniProt A8DYP0); assay: X-ray crystallography, […] Å; settings: co-crystallized with 3 mM ATP and 1 mM MgCl2, ADP found in density; no cation observed; pH 9.5; ATP-binding pocket
T1 construct: gene Obsc; pseudokinase domain PK1 plus 40 C-terminal residues (3186-3480); N-terminal His6-3C tag (pOPINF), cleaved with 3C protease; E. coli Rosetta

dmObsc-PK1 [2] = biological target: T1, dmObsc-PK1; assay: isothermal titration calorimetry; assay type: binding

T1 sequence (A8DYP0 3186-3480): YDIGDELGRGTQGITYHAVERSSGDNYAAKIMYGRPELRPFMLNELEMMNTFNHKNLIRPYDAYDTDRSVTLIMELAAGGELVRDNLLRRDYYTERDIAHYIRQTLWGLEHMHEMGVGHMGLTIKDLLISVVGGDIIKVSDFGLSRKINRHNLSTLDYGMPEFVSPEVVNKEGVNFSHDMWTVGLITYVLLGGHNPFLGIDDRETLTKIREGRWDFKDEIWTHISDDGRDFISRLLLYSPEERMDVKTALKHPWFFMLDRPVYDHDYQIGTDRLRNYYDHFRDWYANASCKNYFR

Row | Compound | X-ray crystallography, 1.90 Å (dmObsc-PK1 [1]) | Kd (dmObsc-PK1 [2]) [µM]
1 | Nc1ncnc2c1ncn2[C@@H]1O[C@H](COP(=O)(O)OP(=O)(O)O)[C@@H](O)[C@H]1O [ADP] | electron density maps revealed ADP bound to the kinase | 
2 | Nc1ncnc2c1ncn2[C@@H]1O[C@H](COP(=O)(O)OP(=O)(O)OP(=O)(O)O)[C@@H](O)[C@H]1O [ATP] |  | 61.8 ± 4.2
